From ChEMBL document CHEMBL1149679 (Bioorg Med Chem Lett, 2007)
pIC50: −log10 of the molar value.

Columns and labels:
[1] = biological target: T1, Polyunsaturated fatty acid lipoxygenase ALOX15 (Oryctolagus cuniculus, UniProt P12530); experiment: Inhibition of rabbit 15-lipoxygenase in presence of linoleic acid
T1 sequence (P12530 whole entry): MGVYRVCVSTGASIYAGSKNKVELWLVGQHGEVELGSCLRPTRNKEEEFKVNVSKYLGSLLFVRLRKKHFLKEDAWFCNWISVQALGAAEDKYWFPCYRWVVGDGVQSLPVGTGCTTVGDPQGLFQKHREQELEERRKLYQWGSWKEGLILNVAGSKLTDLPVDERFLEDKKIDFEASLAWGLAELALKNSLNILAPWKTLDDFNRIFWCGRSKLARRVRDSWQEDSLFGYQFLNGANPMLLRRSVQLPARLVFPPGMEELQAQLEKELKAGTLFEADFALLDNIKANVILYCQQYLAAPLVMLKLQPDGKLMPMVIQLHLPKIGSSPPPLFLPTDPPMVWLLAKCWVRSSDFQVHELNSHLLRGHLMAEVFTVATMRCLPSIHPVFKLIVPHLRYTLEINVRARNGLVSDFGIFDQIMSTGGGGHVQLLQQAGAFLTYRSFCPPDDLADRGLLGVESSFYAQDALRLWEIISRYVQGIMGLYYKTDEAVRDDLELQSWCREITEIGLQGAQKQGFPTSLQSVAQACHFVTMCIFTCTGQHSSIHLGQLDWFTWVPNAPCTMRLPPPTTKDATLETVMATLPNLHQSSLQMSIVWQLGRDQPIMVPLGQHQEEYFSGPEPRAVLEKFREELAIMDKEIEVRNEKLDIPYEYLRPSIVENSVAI

[2] = AUC in Sprague-Dawley rat at 7 mg/kg, po; assay type: ADME, organism-based; design: dose 7 mg/kg, route oral; settings: plasma
[3] = Cmax in Sprague-Dawley rat at 7 mg/kg, po; assay type: ADME, organism-based; design: dose 7 mg/kg, route oral; settings: in vivo
[4] = biological target: T1, Polyunsaturated fatty acid lipoxygenase ALOX15; experiment: Inhibition of rabbit 15-lipoxygenase in presence of arachidonic acid

pIC50 [1]: 7.85
AUC [2]: 4.4 µM·h
Cmax [3]: 1700 nM
pIC50 [4]: 7.30
SMILES: CCCCN1CCN(S(=O)(=O)NCCc2nc(-c3cccs3)[nH]c2-c2ccc(OC)cc2)CC1
